Article PMC12609579, “Acute Myeloid Leukemia: A Key Role of DGKα and DGKζ in Cell Viability” (Cells, 2025)
Like-named read-outs stand apart in the source and are kept apart here.

Legend:
[1] = system: K562 cells; assay: alamarBlue cell viability assay, K562; assay type: cell-based, human
Protocol: (§1) The alamarBlue assay was performed to assess cell viability in presence of chemical inhibitors. A total of 50,000 cells per well were seeded in a 96-wells plate in a volume of 100 μL of complete medium together with 10 μL of 10× concentrated inhibitor solution and then incubated for either 24 or 72 h. Each experimental condition was performed in technical quadruplicates, using cells treated with equal amounts of DMSO vehicle as control and medium alone as background. After incubation, alamarBlue was added to each well at a final concentration of 0.15 mg/mL. The fluorescence of the samples was measured 24 h later using a Spark 10 M Multimode Plate Reader (Tecan, Switzerland) with excitation and emission wavelengths of 535 nm and 590 nm, respectively. For dose–response curve fitting, fluorescence values were normalized according to the following formula:Viability (%) = [(sample mean fluorescence)/(DMSO control mean fluorescence)] ∗ 100
(§2) Data are the results of at least five independent experiments analyzed with GraphPad Prism 10 as [inhibitor] vs. normalized response curve (variable slope, after manual outlier removal).

[2] = molecular target: serotonin 5-HT2A receptor; details: cited from earlier work
[3] = system: THP-1 cells; assay: IPA canonical pathway analysis of differentially abundant proteins; assay type: cell-based, human; details: THP-1, 24 h; ritanserin 50 µM, BAY 2965501 75 µM
Text: A Venn diagram was created to depict the overlap of differentially abundant proteins shared between the two treatments. These proteins, along with their gene symbols and log2FC values, were then used as input for IPA Core Analysis. The following filters were applied: human species and reference tissues/cells (hematopoietic progenitor cells, macrophages, monocytes, peripheral blood monocytes, and THP1 leukemic cells). The resulting Ingenuity Canonical Pathways were downloaded using standard filters and further refined to consider only those with a |Z-score| > 1. For ritanserin vs. DMSO, the top 15 most significant pathways were represented in a bar plot, while for BAY 2965501 vs. DMSO, only three significant pathways were identified and plotted.

[4] = system: K562 cells; assay: Annexin V-FITC/7AAD apoptosis/necrosis flow cytometry, K562; assay type: cell-based, human; details: K562, 24 h
Protocol: (§3) To determine the type of cell death, apoptotic and necrotic cells were detected by flow cytometry using the Apoptosis Detection Kit Annexin V-FITC (Invitrogen, Carlsbad, CA, USA). For each sample, 500,000 cells, pretreated for 24 h, were stained according to manufacturer’s instructions, using 7-aminoactinomycin D (7AAD) instead of propidium iodide. Samples were analyzed on a BD FACS Symphony A5 flow cytometer (Franklin Lakes, NJ, USA) using BD FACSDiva 9.1 software. Data were gated based on FSC-A vs. FSC-H to exclude cell doublets and FSC-A vs. SSC-A to exclude debris. Different populations were identified as: live (Annexin V− and 7AAD−), necrotic (Annexin− and 7AAD+), early apoptotic (Annexin V+ and 7AAD−) and late apoptotic (Annexin+ and 7AAD+). Data are shown as mean ± SD of at least three independent experiments analyzed by GraphPad Prism 10 (control vs. [inhibitor]).

[5] = system: Kasumi-1; parameters: method as in PMID 37392305; details: read-out: IC50 (cytotoxic effects), cited from earlier work
[6] = system: bone marrow mononuclear cells from primary AML samples; parameters: method as in PMID 37392305; details: 40 μM; cited from earlier work
[7] = system: THP-1 cells; assay: Annexin V-FITC/7AAD apoptosis/necrosis flow cytometry, THP-1; assay type: cell-based, human; details: THP-1, 24 h
Protocol: as §3

[8] = system: HEL cells; assay: Annexin V-FITC/7AAD apoptosis/necrosis flow cytometry, HEL; assay type: cell-based, human; details: 24 h
Protocol: as §3

[9] = system: Kasumi-1; parameters: method as in PMID 37392305; details: xenograft mouse models injected with Kasumi-1; cited from earlier work
[10] = system: HEL cells; assay: alamarBlue cell viability assay, HEL; assay type: cell-based, human
Protocol: as §1, §2

[11] = concentration close to IC50, representative plot

Cc1nc2sccn2c(=O)c1CCN1CCC(=C(c2ccc(F)cc2)c2ccc(F)cc2)CC1 [ritanserin] gave an IC50 ([1]; Homo sapiens, K562, 24 h, K562, 24 h treatment then alamarBlue 24 h) of 70.4 ± 2.2 µM, an IC50 ([1]; Homo sapiens, K562, K562, 72 h treatment then alamarBlue 24 h) of 42.5 ± 1.8 µM and an IC50 ([1]; K562, 24 h treatment then alamarBlue 24 h) of roughly 70 µM. For the same compound, the Ki [2] was 0.00045 µM, the “number of pathways affected / significantly downmodulated” value [3] was “more than 500” and the “Early apoptotic (Annexin V+ 7AAD-)” value [4, 11] was 6.2%. The “Late apoptotic (Annexin+ 7AAD+)” value [4, 11] was 1.7%, the “Live cells (Annexin V- 7AAD-)” value [4, 11] was 90.1% and the “Necrotic (Annexin- 7AAD+)” value [4, 11] was 2.0%. The “modality of cell death” value ([4]; concentration near IC50) was “early apoptosis”, the IC50 ([5]; Kasumi-1, 24 h) was 51 µM and the IC50 ([5]; Kasumi-1, 72 h) was 30 µM. For the same compound, the “apoptosis, % of cells” value [6] was “up to 70%”, the “Early apoptotic (Annexin V+ 7AAD-)” value [7, 11] was 14.4% and the “Late apoptotic (Annexin+ 7AAD+)” value [7, 11] was 2.2%. For the same compound, the “Live cells (Annexin V- 7AAD-)” value [7, 11] was 83.2%, the “Necrotic (Annexin- 7AAD+)” value [7, 11] was 0.2% and the “modality of cell death” value ([7]; concentration near IC50) was “early apoptosis”. The “Early apoptotic (Annexin V+ 7AAD-)” value [8, 11] was 12.2%, the “Late apoptotic (Annexin+ 7AAD+)” value [8, 11] was 2.3% and the “Live cells (Annexin V- 7AAD-)” value [8, 11] was 82.5%. For the same compound, the “Necrotic (Annexin- 7AAD+)” value [8, 11] was 2.9%, the “modality of cell death” value ([8]; concentration near IC50) was “early apoptosis” and the survival [9] was “improved survival”. The tumor burden [9] was “significant reduction”, the IC50 ([10]; 24 h treatment then alamarBlue 24 h) was roughly 49 µM and the IC50 ([10]; Homo sapiens, 24 h, 24 h treatment then alamarBlue 24 h) was 49.2 ± 2 µM. For the same compound, the IC50 ([10]; Homo sapiens, 72 h treatment then alamarBlue 24 h) was 29.6 ± 1 µM.
